Assay results as given in ChEMBL document CHEMBL1201862, “PubChem BioAssay data set” (2004).
Calls of active or inactive are those of the source.

Key:
[1] = molecular target: Botulinum neurotoxin type A (Clostridium botulinum (strain Hall / ATCC 3502 / NCTC 13319 / Type A), UniProt P0DPI1); test: High-throughput multiplex microsphere dose response for inhibitors of toxin protease, specifically Botulinum neurotoxin light chain A protease, compounds from Cherry Pick 02.; assay type: functional; conditions: read-out: EC50_MICROM
[2] = system: H4; test: Luminescence Cell-Based Dose Response HTS to Identify Activators of 5'UTR Stem-Loop Driven Prion Protein mRNA Translation in H4 Neuroglioblastoma Cells. [Related pubchem assays: 1829 (Project Summary), 1814 (Primary HTS)]; assay type: functional; conditions: Homo sapiens
[3] = molecular target: Multidrug resistance protein CDR1 (Candida albicans, UniProt P43071); test: CaCDR1 efflux pump inhibitors in yeast, dose response, S. cerevisiae AD1-8u, singleplex, Cherry Pick1 hits (AID 588606); assay type: functional
[4] = Luminescence Cell-Based Dose Response HTS to Identify Activators of Luciferase Translation or Activity in H4 […] Cells. [Related pubchem assays: 1829 (Project Summary), 1814 (Primary HTS)]; assay type: functional
[5] = molecular target: Photoreceptor-specific nuclear receptor (Homo sapiens, UniProt Q9Y5X4); assay type: functional, cell-based;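 further: CHO-S cells with Gal4-NCOR and VP16-NR2E3 two-hybrid luciferase reporter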
Sequence of Photoreceptor-specific nuclear receptor (Q9Y5X4 whole entry, the tested form may be a part): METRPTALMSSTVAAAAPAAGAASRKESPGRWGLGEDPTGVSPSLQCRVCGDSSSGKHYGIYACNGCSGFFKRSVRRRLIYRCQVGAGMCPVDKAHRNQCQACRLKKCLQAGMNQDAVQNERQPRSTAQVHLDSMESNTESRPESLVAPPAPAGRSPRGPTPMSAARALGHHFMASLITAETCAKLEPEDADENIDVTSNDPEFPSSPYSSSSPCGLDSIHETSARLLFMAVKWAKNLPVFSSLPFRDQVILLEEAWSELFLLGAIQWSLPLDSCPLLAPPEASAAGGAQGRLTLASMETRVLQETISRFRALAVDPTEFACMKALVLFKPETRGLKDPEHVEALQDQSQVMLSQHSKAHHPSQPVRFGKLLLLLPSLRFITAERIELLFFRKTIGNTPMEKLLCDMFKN

[6] = system: HEK293; test: inhibitors of LMP1-driven NF-kB reporter, dose response, cell-based, HEK293, luciferase, cherry-pick (AID 588343); assay type: functional; conditions: Homo sapiens
[7] = molecular target: Latent membrane protein 1 (Human herpesvirus 4 (strain B95-8), UniProt P03230); test: TES1-eGFP NF-kB reporter inhibition versus Tet-On dsRED, dose response, selectivity assay for LMP1 NF-kB inhibitor project, imaging, HEK293T, dual-color eGFP/dsRED, cherry-picks (AID 588398); assay type: functional, cell-based
[8] = system: INS1; test: protection from cytokine-induced mitochondrial depolarization, dose response, cell-based, INS-1E, JC-1 fluorescence ratio, dry powder (AID 488931); assay type: functional; conditions: Rattus norvegicus
[9] = system: INS1; test: inhibitors of cytokine-induced nitrite release, dose response, cell-based, Griess absorbance, INS-1E, dry powder, set 2 (AID 488868); assay type: functional; conditions: Rattus norvegicus
[10] = system: INS1; test: protection of INS-1E cells from cytokine death, dose response, ATP luminescence, dry powder (AID 488844); assay type: functional, cell-based; conditions: Rattus norvegicus
[11] = inhibitors of cytokine-induced nitrite release, dose response, cell-based, Griess absorbance, INS-1E, dry powder, set 3 (AID 488870); assay type: functional; conditions: Rattus norvegicus
[12] = molecular target: Casein kinase I isoform alpha (Homo sapiens, UniProt P48729); assay type: functional
[13] = molecular target: Focal adhesion kinase 1 (Homo sapiens, UniProt Q05397); assay type: functional;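 further: measured as one member of a kinome panel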
Sequence of Focal adhesion kinase 1 (Q05397 whole entry): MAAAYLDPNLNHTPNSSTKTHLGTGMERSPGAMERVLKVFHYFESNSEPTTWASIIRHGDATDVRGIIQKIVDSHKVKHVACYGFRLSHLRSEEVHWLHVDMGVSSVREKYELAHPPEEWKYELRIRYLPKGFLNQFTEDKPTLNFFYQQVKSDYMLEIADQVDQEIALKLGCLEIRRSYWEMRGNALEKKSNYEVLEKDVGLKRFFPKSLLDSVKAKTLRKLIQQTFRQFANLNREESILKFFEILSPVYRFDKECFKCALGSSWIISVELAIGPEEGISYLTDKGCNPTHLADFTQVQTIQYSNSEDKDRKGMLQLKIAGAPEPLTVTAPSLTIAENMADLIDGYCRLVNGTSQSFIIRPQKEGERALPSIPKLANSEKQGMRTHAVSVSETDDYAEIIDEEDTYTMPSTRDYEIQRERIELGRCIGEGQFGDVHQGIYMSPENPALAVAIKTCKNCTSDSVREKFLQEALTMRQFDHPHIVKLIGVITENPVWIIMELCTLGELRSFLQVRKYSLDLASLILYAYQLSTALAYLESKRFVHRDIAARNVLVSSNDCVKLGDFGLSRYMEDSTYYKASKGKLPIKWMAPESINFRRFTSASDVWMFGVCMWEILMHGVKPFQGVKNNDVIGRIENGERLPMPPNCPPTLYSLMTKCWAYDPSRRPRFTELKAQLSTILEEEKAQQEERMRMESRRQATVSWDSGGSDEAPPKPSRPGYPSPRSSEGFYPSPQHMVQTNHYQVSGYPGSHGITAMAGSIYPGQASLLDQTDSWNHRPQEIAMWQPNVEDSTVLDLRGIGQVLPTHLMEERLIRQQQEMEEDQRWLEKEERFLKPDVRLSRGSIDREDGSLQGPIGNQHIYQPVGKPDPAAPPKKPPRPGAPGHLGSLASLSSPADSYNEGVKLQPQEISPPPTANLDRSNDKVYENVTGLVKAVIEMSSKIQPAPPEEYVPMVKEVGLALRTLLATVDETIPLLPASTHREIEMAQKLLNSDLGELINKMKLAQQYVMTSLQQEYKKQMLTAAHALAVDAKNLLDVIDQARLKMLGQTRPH

[14] = molecular target: Dual specificity protein kinase CLK4 (Homo sapiens, UniProt Q9HAZ1); assay type: functional
Sequence of Dual specificity protein kinase CLK4 (Q9HAZ1 whole entry): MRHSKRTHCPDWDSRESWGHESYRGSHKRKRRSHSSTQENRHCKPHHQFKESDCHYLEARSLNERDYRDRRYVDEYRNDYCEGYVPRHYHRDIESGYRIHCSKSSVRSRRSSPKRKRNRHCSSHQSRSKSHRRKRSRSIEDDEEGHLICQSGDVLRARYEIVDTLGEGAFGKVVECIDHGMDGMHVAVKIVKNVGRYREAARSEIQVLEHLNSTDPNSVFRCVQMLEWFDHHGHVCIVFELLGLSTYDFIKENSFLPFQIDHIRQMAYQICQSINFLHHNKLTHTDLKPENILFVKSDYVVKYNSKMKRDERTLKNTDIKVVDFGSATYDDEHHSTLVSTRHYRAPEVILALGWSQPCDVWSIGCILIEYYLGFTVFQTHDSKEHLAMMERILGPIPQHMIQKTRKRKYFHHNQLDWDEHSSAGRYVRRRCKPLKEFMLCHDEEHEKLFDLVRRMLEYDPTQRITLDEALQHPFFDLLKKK

[15] = molecular target: Sphingosine 1-phosphate receptor 1 (Homo sapiens, UniProt P21453); test: Late-stage fluorescence-based dose-response cell-based counterscreen assay to identify agonists of the Sphingosine 1-Phosphate Receptor 4 (S1P4): Sphingosine 1-Phosphate Receptor 1 (S1P1) agonist assay Set 2.; assay type: functional
Sequence of Sphingosine 1-phosphate receptor 1 (P21453 whole entry): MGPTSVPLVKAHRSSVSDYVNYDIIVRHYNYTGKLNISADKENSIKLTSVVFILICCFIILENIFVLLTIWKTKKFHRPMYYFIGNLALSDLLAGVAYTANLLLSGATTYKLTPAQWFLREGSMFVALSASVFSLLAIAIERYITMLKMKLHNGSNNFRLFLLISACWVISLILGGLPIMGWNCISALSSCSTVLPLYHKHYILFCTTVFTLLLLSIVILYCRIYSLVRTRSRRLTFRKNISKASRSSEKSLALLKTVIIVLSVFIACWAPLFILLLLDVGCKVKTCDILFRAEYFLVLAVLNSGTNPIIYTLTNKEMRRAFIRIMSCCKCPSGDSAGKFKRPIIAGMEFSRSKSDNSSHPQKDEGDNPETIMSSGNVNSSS

[16] = molecular target: Sphingosine 1-phosphate receptor 5 (Homo sapiens, UniProt Q9H228); test: S1P5 receptor agonists, human, late-stage follow-up, counter-screen for S1P4 agonist project, cell-based, fluorescence, set 2 (AID 504867); assay type: functional
Sequence of Sphingosine 1-phosphate receptor 5 (Q9H228 whole entry): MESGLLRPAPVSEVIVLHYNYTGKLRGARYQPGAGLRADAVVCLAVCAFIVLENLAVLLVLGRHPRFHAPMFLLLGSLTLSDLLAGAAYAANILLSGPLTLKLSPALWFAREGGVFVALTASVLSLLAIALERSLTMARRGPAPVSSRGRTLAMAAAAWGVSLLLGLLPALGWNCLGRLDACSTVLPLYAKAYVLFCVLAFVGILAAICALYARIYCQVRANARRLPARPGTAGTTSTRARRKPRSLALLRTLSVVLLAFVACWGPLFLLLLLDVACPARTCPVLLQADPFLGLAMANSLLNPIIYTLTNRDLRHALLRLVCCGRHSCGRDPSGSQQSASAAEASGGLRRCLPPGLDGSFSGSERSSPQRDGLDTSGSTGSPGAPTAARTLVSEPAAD

[17] = molecular target: Sphingosine 1-phosphate receptor 3 (Homo sapiens, UniProt Q99500); test: Late-stage fluorescence-based dose-response cell-based counterscreen assay to identify agonists of the Sphingosine 1-Phosphate Receptor 4 (S1P4): Sphingosine 1-Phosphate Receptor 3 (S1P3) agonist assay Set 2.; assay type: functional
Sequence of Sphingosine 1-phosphate receptor 3 (Q99500 whole entry): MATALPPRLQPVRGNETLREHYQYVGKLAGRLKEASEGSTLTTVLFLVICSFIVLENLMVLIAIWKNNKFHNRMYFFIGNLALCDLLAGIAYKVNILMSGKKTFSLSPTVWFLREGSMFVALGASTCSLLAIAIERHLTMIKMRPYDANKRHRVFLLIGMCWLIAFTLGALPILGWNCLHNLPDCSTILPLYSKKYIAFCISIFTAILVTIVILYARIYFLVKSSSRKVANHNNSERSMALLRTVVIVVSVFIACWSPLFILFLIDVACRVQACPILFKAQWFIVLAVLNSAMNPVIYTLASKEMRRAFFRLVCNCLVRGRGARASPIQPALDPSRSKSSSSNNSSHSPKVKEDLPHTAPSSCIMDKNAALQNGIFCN

[18] = molecular target: Sphingosine 1-phosphate receptor 2 (Homo sapiens, UniProt O95136); test: S1P2 receptor agonists, human, late-stage follow-up, counter-screen for S1P4 agonist project, cell-based, fluorescence, set 2 (AID 504873); assay type: functional
Sequence of Sphingosine 1-phosphate receptor 2 (O95136 whole entry): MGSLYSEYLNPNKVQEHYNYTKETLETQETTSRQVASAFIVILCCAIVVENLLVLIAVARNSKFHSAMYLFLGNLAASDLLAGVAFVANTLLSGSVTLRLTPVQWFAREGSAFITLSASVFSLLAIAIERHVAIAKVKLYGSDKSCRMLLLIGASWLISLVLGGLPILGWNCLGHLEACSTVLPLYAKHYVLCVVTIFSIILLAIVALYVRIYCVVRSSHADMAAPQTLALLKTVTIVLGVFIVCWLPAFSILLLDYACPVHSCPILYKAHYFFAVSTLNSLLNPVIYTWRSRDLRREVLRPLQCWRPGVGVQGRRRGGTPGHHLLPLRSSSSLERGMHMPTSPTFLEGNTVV

[19] = molecular target: DNA dC->dU-editing enzyme APOBEC-3A (Homo sapiens, UniProt P31941); test: SAR analysis of small molecule inhibitors of APOBEC3A DNA Deaminase via a fluorescence-based single-stranded DNA deaminase assay.; assay type: functional; conditions: read-out: IC50_Mean
Sequence of DNA dC->dU-editing enzyme APOBEC-3A (P31941 whole entry): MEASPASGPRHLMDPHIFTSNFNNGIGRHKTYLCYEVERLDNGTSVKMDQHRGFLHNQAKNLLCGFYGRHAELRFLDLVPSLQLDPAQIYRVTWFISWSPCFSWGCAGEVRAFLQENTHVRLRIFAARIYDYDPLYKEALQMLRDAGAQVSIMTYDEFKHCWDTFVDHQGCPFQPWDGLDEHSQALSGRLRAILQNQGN

[20] = molecular target: DNA dC->dU-editing enzyme APOBEC-3G (Homo sapiens, UniProt Q9HC16); test: APOBEC3G deaminase inhibitors, SAR follow-up, biochemical, fluorescence, single-stranded DNA substrate (AID 602136); assay type: functional; conditions: read-out: IC50_Mean
[21] = molecular target: Apoptotic protease-activating factor 1 (Homo sapiens, UniProt O14727); test: SAR analysis of small molecule inhibitors of Apaf-1 in a Fluorescent assay.; assay type: functional; conditions: read-out: IC50_Mean
Sequence of Apoptotic protease-activating factor 1 (O14727 whole entry): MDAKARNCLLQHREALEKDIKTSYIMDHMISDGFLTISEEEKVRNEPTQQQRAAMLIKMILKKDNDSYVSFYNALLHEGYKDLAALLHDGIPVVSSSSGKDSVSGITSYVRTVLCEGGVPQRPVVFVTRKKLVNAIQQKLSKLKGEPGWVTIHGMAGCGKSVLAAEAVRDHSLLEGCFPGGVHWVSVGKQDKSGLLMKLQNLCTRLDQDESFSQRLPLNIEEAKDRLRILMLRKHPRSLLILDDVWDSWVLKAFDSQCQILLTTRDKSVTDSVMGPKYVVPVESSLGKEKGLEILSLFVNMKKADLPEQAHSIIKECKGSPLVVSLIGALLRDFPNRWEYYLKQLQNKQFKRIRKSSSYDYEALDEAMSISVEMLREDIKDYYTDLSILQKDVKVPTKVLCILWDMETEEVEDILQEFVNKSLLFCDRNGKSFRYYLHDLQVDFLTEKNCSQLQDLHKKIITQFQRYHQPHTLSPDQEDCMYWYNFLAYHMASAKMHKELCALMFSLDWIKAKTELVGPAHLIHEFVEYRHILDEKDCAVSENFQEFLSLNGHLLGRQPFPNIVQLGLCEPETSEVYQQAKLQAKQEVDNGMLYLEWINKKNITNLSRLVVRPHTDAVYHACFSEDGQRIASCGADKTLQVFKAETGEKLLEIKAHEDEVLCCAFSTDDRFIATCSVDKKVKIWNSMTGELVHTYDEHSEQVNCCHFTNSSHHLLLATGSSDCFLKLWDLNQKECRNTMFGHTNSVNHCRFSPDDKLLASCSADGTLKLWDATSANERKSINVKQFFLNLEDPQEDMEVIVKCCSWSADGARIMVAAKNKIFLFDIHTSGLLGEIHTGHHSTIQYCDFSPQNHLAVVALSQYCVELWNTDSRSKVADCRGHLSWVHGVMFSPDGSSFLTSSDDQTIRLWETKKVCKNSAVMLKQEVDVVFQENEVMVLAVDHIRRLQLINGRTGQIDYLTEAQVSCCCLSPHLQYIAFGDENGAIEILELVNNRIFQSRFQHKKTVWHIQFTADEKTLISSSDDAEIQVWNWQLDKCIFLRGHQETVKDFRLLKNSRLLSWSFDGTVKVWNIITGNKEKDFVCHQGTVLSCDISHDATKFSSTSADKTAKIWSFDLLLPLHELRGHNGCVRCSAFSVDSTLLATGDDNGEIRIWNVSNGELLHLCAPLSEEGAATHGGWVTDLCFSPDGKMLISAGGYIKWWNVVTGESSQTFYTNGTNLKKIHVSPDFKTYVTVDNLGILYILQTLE

In the case of Cc1onc(-c2ccccc2Cl)c1C(=O)NCc1ccc2c(c1)cc(C)n2C, the EC50 [1] is reported as 4.2 µM (active).

For O=C(/C=C/c1ccccc1Cl)NCCc1ccccc1, the EC50 [2] was > 120 µM (not active), the EC50 [3] was 0.514 µM (active) and the EC50 [4] was 4.27 µM (active).

With S=C(NN=Cc1ccccn1)Nc1ccccn1 the IC50 [5] was 7.61 µM (active), the AC50 [6] was 21.5 µM (active) and the AC50 [7] was 10.7 µM (active).

In the case of COc1ccc(S(=O)(=O)N(C)C[C@@H]2Oc3c(NC(=O)Nc4cccc5ccccc45)cccc3C(=O)N([C@@H](C)CO)C[C@H]2C)cc1F, the AC50 [8] is reported as > 195 µM (inactive), the AC50 [9] is reported as 26.7 µM (active) and the AC50 [10] is reported as 23.2 µM (active). For the same molecule, the AC50 [11] was 60.8 µM (active).

With Cc1cc(C(C)Nc2ccccc2)c2nc(N3CCOCC3)cc(=O)n2c1 (stereo unspecified) the Ki [12] was 2 µM (active), the Ki [13] was 2.51 µM (active) and the Ki [14] was 2.51 µM (active).

In the case of CC/N=C1/S/C(=C/c2cc(C)n(Cc3ccccc3)c2C)C(=O)N1CC, the EC50 [15] is reported as 0.185 µM (active), the EC50 [16] is reported as 0.0631 µM (active) and the EC50 [17] is reported as 12.9 µM (inactive). The EC50 [18] was 3.28 µM (active).

With O=C1NC(=S)NC(=O)C1=Cc1ccc2c(c1)CCN2Cc1ccccc1Cl the IC50 [19] was 9.78 µM (active) and the IC50 [20] was 77.5 µM (inactive).

For CCN(CC)CCOC(=O)c1ccc(N/C=C(\C#N)c2nc(-c3ccc(Cl)c(Cl)c3)cs2)cc1, the IC50 [21] was 6.88 µM (active).
